Assays:
[1] = test system: different microbes (Bacillus cereus, Staphylococcus aureus, Pseudomonas aeruginosa, Escherichia coli, Aspergillus flavus, Chrysosporium keratinophilum); assay: agar plate disc-diffusion antimicrobial test; format: cell-based; details: disc wetted with 10 μL of 10 mg/mL in DMSO; 37° C., 48 h (72 h for fungi); inhibition zones measured in mm but not given
Method: The agar plate disc-diffusion method was applied. Sterilized filter papers (6 mm in diameter) were wetted with 10 μL of a solution of ethyl {[4-benzoyl-5-(3-fluorophenyl)-4H-1,2,4-triazol-3-yl]thio}acetate (III) to be tested, containing 10 mg/mL in DMSO, and the discs were allowed to air dry. The discs were then placed onto the surface of agar plates (nutrient agar for bacteria and Sabouraud's dextrose agar for fungi) seeded with the test organism. Each plate contained 15 mL of the agar medium, previously seeded with 0.2 mL of the broth culture of each organism pregrown for 18 h. The plates were incubated at 37° C. for 48 h, and 72 h for fungi. The inhibition zones was measured in mm. Discs impregnated with DMSO were used as a control, and its inhibition zone was subtracted from the tested compound actual inhibition zone. […] The antibacterial activity was screened against gram positive bacteria namely Bacillus cereus and Staphylococcus aureus and gram-negative bacterial strains namely Pseudomonas aeruginosa and Escherichia coli, while the antifungal activity was screened against Aspergillus flavus and Chrysosporium keratinophilum.

melting point: 154 to 155 °C
SMILES: CCOC(=O)CSc1nnc(-c2cccc(F)c2)n1C(=O)c1ccccc1 [III, ethyl {[4-benzoyl-5-(3-fluorophenyl)-4H-1,2,4-triazol-3-yl]thio}acetate]
antimicrobial activities [1]: excellent antimicrobial activities
